# Source: ChEMBL document CHEMBL5505995, “Discovery of novel urea derivatives as ferroptosis and autophagy inducer for human colon cancer treatment” (Eur J Med Chem, 2024)
# The source made the active and inactive calls. No cut-off for these calls is given here.
# Assays:
# HT-29 [1] = experiment: Induction of cell cycle arrest in human HT-29 cells assessed as […] of CDK1 expression at 0.5 to 4 uM incubated for 48 hrs by Western blotting analysis; type: functional, cell-based; conditions: dose 0.5-4 µM
# HT-29 [2] = experiment: Induction of autophagy in human HT-29 cells assessed as increase in MDC positive cells incubated for 48 hrs in presence of ROS scavenger NAC by MDC staining based flow cytometric analysis; type: functional, cell-based
# HT-29 [3] = experiment: Induction of ferroptosis in human HT-29 cells assessed as increase in intracellular lipid peroxidation accumulation incubated for 48 hrs in presence of autophagy inhibitor 3-methyladenine by C11 BODIPY 581/591 staining based flow cytometry; type: functional, cell-based
# HT-29 [4] = experiment: Induction of autophagy in human HT-29 cells assessed as increase in MDC positive cells incubated for 48 hrs in presence of ferroptosis inhibitor deferoxamine by MDC staining based flow cytometric analysis; type: functional, cell-based
# HT-29 [5] = experiment: Induction of ROS production in human HT-29 cells assessed as increase in DCF fluorescence intensity incubated for 48 hrs by DCFH-DA fluorescent probe based flow cytometry; type: functional, cell-based
# HT-29 [6] = experiment: Induction of autophagy in human HT-29 cells assessed as increase in MDC positive cells incubated for 48 hrs by MDC staining based flow cytometric analysis; type: functional, cell-based
# HT-29 [7] = experiment: Induction of autophagy in human HT-29 cells assessed as upregulation of ATG7 protein expression incubated for 48 hrs by Western blotting analysis; type: functional, cell-based
# HT-29 [8] = experiment: Induction of cell cycle arrest in human HT-29 cells assessed as accumulation of cells at G2/M phase at 4 uM incubated for 48 hrs by propidium iodide staining based flow cytometric analysis relative to control; type: functional
# HT-29 [9] = experiment: Induction of ferroptosis in human HT-29 cells assessed as increase in intracellular iron level incubated for 48 hrs in presence of ROS scavenger NAC; type: functional, cell-based
# HT-29 [10] = experiment: Induction of ferroptosis in human HT-29 cells assessed as increase in intracellular lipid peroxidation accumulation incubated for 48 hrs in presence of ferroptosis inhibitor CPX by C11 BODIPY 581/591 staining based flow cytometry; type: functional, cell-based
# HT-29 [11] = experiment: Induction of ferroptosis in human HT-29 cells assessed as increase in intracellular lipid peroxidation accumulation incubated for 48 hrs in presence of ROS scavenger NAC by C11 BODIPY 581/591 staining based flow cytometry; type: functional, cell-based
# HT-29 [12] = experiment: Induction of cell cycle arrest in human HT-29 cells assessed as downregulation of Cyclin B1 expression at 0.5 to 4 uM incubated for 48 hrs by Western blotting analysis; type: functional, cell-based; conditions: dose 0.5-4 µM
# HT-29 [13] = experiment: Induction of ferroptosis in human HT-29 cells assessed as fusion of mitochondrial cristae incubated for 48 hrs in presence of ferroptosis inhibitor deferoxamine by transmission electron microscopic analysis; type: functional, cell-based
# HT-29 [14] = experiment: Antiproliferative activity against human HT-29 cells assessed as inhibition of cell growth at 1 to 10 uM incubated for 48 hrs by MTT assay; type: functional, cell-based; conditions: dose 1-10 µM
# HT-29 [15] = experiment: Induction of ferroptosis in human HT-29 cells assessed as increase in intracellular malondialdehyde accumulation incubated for 48 hrs in presence of ferroptosis inhibitor CPX; type: functional, cell-based
# HT-29 [16] = experiment: Induction of ferroptosis in human HT-29 cells assessed as increase in intracellular malondialdehyde accumulation incubated for 48 hrs in presence of autophagy inhibitor 3-methyladenine; type: functional, cell-based
# HT-29 [17] = experiment: Induction of ferroptosis in human HT-29 cells incubated for 48 hrs by MTT assay; type: functional, cell-based
# HT-29 [18] = experiment: Induction of ferroptosis in human HT-29 cells assessed as increase in mitochondrial membrane density incubated for 48 hrs in presence of ferroptosis inhibitor deferoxamine by transmission electron microscopic analysis; type: functional, cell-based
# HT-29 [19] = experiment: Induction of ferroptosis in human HT-29 cells assessed as increase in intracellular lipid peroxidation accumulation incubated for 48 hrs by C11 BODIPY 581/591 staining based flow cytometry; type: functional, cell-based
# HT-29 [20] = experiment: Induction of ferroptosis in human HT-29 cells assessed as decrease in intracellular GSH level incubated for 48 hrs in presence of ferroptosis inhibitor CPX; type: functional, cell-based
# HT-29 [21] = experiment: Induction of cell death in human HT-29 cells incubated for 48 hrs in presence of ferroptosis inhibitor CPX by MTT assay; type: functional, cell-based
# HT-29 [22] = experiment: Induction of ferroptosis in human HT-29 cells assessed as increase in intracellular iron level incubated for 48 hrs in presence of autophagy inhibitor 3-methyladenine; type: functional, cell-based
# HT-29 [23] = experiment: Induction of ferroptosis in human HT-29 cells assessed as fusion of mitochondrial cristae incubated for 48 hrs by transmission electron microscopic analysis; type: functional, cell-based
# HT-29 [24] = experiment: Induction of cell cycle arrest in human HT-29 cells assessed as accumulation of cells at G2/M phase at 1 uM incubated for 48 hrs by propidium iodide staining based flow cytometric analysis; type: functional
# HT-29 [25] = experiment: Induction of cell cycle arrest in human HT-29 cells assessed as accumulation of cells at G2/M phase incubated for 48 hrs by propidium iodide staining based flow cytometric analysis; type: functional
# HT-29 [26] = experiment: Induction of ferroptosis in human HT-29 cells assessed as decrease in GPX4 expression incubated for 48 hrs by Western blotting analysis; type: functional, cell-based
# HT-29 [27] = experiment: Antiproliferative activity against human HT-29 cells assessed as inhibition of cell growth incubated for 48 hrs in presence of ROS scavenger NAC by MTT assay; type: functional, cell-based
# HT-29 [28] = experiment: Induction of ferroptosis in human HT-29 cells assessed as decrease in GPx level incubated for 48 hrs in presence of autophagy inhibitor 3-methyladenine; type: functional, cell-based
# Cell membrane = experiment: Induction of mitochondrial membrane potential loss in human HT-29 cells assessed as increase in green fluorescence incubated for 48 hrs by JC-1 staining based flow cytometry; type: cell membranes
# HT-29 [29] = experiment: Induction of ferroptosis in human HT-29 cells assessed as decrease in intracellular GSH level incubated for 48 hrs in presence of ferroptosis inhibitor deferoxamine; type: functional, cell-based
# HT-29 [30] = experiment: Induction of ferroptosis in human HT-29 cells assessed as mitochondrial morphological change incubated for 48 hrs in presence of ferroptosis inhibitor deferoxamine by transmission electron microscopic analysis; type: functional, cell-based
# HT-29 [31] = experiment: Induction of ferroptosis in human HT-29 cells assessed as increase in intracellular iron level incubated for 48 hrs; type: functional, cell-based
# HT-29 [32] = experiment: Induction of ferroptosis in human HT-29 cells assessed as increase in intracellular malondialdehyde accumulation incubated for 48 hrs in presence of ferroptosis inhibitor deferoxamine; type: functional, cell-based
# HT-29 [33] = experiment: Induction of ferroptosis in human HT-29 cells assessed as decrease in intracellular GSH level incubated for 48 hrs in presence of autophagy inhibitor 3-methyladenine; type: functional, cell-based
# HT-29 [34] = experiment: Induction of ferroptosis in human HT-29 cells assessed as increase in intracellular iron level incubated for 48 hrs in presence of ferroptosis inhibitor CPX; type: functional, cell-based
# HepG2 = experiment: Antiproliferative activity against human HepG2 cells assessed as inhibition of cell growth incubated for 48 hrs by MTT assay; type: functional, cell-based; conditions: HepG2, 48 h
# HT-29 [35] = experiment: Induction of ferroptosis in human HT-29 cells assessed as increase in intracellular lipid peroxidation accumulation incubated for 48 hrs in presence of ferroptosis inhibitor deferoxamine by C11 BODIPY 581/591 staining based flow cytometry; type: functional, cell-based
# HT-29 [36] = experiment: Induction of ROS production in human HT-29 cells assessed as increase in red fluorescence intensity incubated for 48 hrs by DHE fluorescent probe based flow cytometry; type: functional, cell-based
# K562 = experiment: Antiproliferative activity against human K562 cells assessed as inhibition of cell growth incubated for 48 hrs by MTT assay; type: functional, cell-based; conditions: K562, 48 h
structure (smiles),measurement,setting,value
COc1ccc2c(c1)NCCN2C(=O)NCCCl,Activity,HT-29 [1],Active
same,Activity,HT-29 [2],inactive
same,Activity,HT-29 [3],Active
same,Activity,HT-29 [4],Active
same,Activity,HT-29 [5],Dose-Dependent Effect
same,Activity,HT-29 [6],Dose-Dependent Effect
same,Activity,HT-29 [7],Dose-Dependent Effect
same,Activity,HT-29 [8],>80%
same,Activity,HT-29 [9],inactive
same,Activity,HT-29 [10],inactive
same,Activity,HT-29 [11],inactive
same,Activity,HT-29 [12],Active
same,Activity,HT-29 [13],inactive
same,Activity,HT-29 [14],Active
same,Activity,HT-29 [15],inactive
same,Activity,HT-29 [16],Active
same,Activity,HT-29 [17],Active
same,Activity,HT-29 [18],inactive
same,Activity,HT-29 [19],Dose-Dependent Effect
same,Activity,HT-29 [20],inactive
same,Activity,HT-29 [21],inactive
same,Activity,HT-29 [22],Active
same,Activity,HT-29 [23],Active
same,Activity,HT-29 [24],inactive
same,Activity,HT-29 [25],Dose-Dependent Effect
same,Activity,HT-29 [26],Dose-Dependent Effect
same,Activity,HT-29 [27],inactive
same,Activity,HT-29 [28],Active
same,Activity,Cell membrane,Dose-Dependent Effect
same,Activity,HT-29 [29],inactive
same,Activity,HT-29 [30],inactive
same,Activity,HT-29 [31],Dose-Dependent Effect
same,Activity,HT-29 [32],inactive
same,Activity,HT-29 [33],Active
same,Activity,HT-29 [34],inactive
same,IC50,HepG2,13.8 µM
same,Activity,HT-29 [35],inactive
same,Activity,HT-29 [36],Active
same,IC50,K562,4.92 µM
